What is called IC80 is the concentration at which the effect reaches the 80% level. High values mean a need for much substance, low ones an effect from little substance. The IC50 is the midpoint of a concentration-inhibition curve. Lower therefore signals greater potency in that assay.

In assay [1] the test system is Human Immunodeficiency Virus type 1 (HIV) strain #237228 in human peripheral blood lymphocytes (PBLs). The assay can be described thus: Anti-HIV-1 antiviral activity in acutely infected peripheral blood lymphocytes (CPE and RT activity). Type of assay: cell-based, Human Immunodeficiency Virus type 1 (HIV); human cells. To be noted: for IC100: Human immunodeficiency virus 1, 144 h, PBL cells, acute HIV-1 infection, day 6, concentration at which virus replication is inhibited (CPE negative or trace, >95% inhibition of RT activity); for antiviral index (Al), PBL cells: only non-toxic concentrations used, 8640 min. The text has this:
(§1) The antiviral activity of representative compounds of the present invention has been determined at the Antivirals Laboratory, Fairfield Hospital, Fairfield, Victoria, Australia. In this test a stock solution of each compound was made in DMSO, then diluted in culture medium (RF 10) to 2× the final concentration required for test. The final concentration of DMSO was 1% or below. Approximately 250,000 continuous lymphocytes of human origin (MT2 cells) or 750,000 human peripheral blood lymphocytes (PBLs) were exposed to dilutions of each test compound, then immediately infected with Human Immunodeficiency Virus type 1 (HIV) strain #237228 (a clinical isolate obtained from a human source). The infectivity titers were expressed as tissue culture 50% infective dose (TCID50 per ml) with 1 TCID50 corresponding to the amount of supernatant required to infect 50% of the replicate cell cultures. The 250 and 200 TCID50 were used for MT2 and PBL cells respectively. The cell/drug/virus mixture was then incubated at 37° C./CO2 in a 24-well microtitre plate. Fresh amounts of the appropriate dilution of each drug were added to both MT2 and PBL cultures at day 3. At day 6, the extent of HIV-specific cytopathic effects (CPE) associated with each concentration of test compound in each of the cultures was rated according to the following scale:
(§2) 4+: 75-100% of cells showing 3+: good CPE
(§3) 3+: 50-75% of cells showing 2+: moderate CPE
(§4) 2+: 25-50% of cells showing 1+: low CPE
(§5) 1+: 5-25% of cells showing trace: minimal CPE
(§6) +/-: less than 5% CPE Negative: no CPE
(§7) The activity of the compounds at each concentration was also assessed by their ability to inhibit viron-associated reverse transcriptase (RT) activity in the culture supernates. At the time of rating of CPE, supernatant fluids from each well were removed and RT activity measured using a standard assay. CPE ratings of negative, ± (in MT2 cells) or trace (in PBLs), with greater than 95% inhibition of RT activity, was considered to represent IC100 (the concentration of compound at which the virus replication is inhibited). Control cultures included in each test were:
(§8) (a) HIV-infected cells in the absence of test compound.
(§9) (b) Uninfected cells in the absence of tested compound.
(§10) (c) Cell toxicity control consisting of uninfected cells treated with dilutions of test compound.
(§11) At the conclusion of each experiment, viable cells in these cultures, as determined by tryptan blue exclusion, were compared with the counts obtained in (b), above.

Assay [2] concerns Human Immunodeficiency Virus type 1 (HIV) strain #237228 in MT2 cells. Description: Anti-HIV-1 antiviral activity in acutely infected MT2 cells (CPE and RT activity). Type of assay: cell-based. As to conditions: for IC100: Human immunodeficiency virus 1, 144 h, acute HIV-1 infection, day 6, concentration at which virus replication is inhibited (CPE negative or ±, >95% inhibition of RT activity); for antiviral index (Al), MT2 cells: only non-toxic concentrations used, 8640 min; for IC80: Human immunodeficiency virus 1, printed in the IC100 column with footnote (b) IC80.
Text: as §1, §2, §3, §4, §5, §6, §7, §8, §9, §10, §11

For the molecule `C[C@@H](O)[C@H](NC(=O)c1ccc2ccccc2n1)C(=O)N[C@@H](Cc1ccccc1)C(O)CN1CC2CCCCC2CN1C(=O)OC(C)(C)C` (stereo partly drawn) [Compound 5, cis-1,6-3-t-Butoxycarbonyl-4-[(2RS,3S)-2-hydroxy-3-(N-quinaldyl-L-threonyl)amino-4-phenylbutyl]-3,4-diaza-bicyclo[4.4.0]decane], in assay [1], the IC100 is 1 µM and the “antiviral index (Al), PBL cells” value is listed as under 10. Also, in assay [2], the IC100 turned out to be 1 µM and the “antiviral index (Al), MT2 cells” value is reported as under 10.
For the molecule `CC(C)N(C[C@H](O)[C@H](Cc1ccccc1)NC(=O)[C@H](CC(N)=O)NC(=O)c1ccc2ccccc2n1)NC(=O)NC(C)(C)C` [Compound 14, 1-(t-Butylamino)carbonyl-2-[(2S,3S)-2-hydroxy-3-(N-quinaldyl-L-asparaginyl)amino-4-phenylbutyl]-2-isopropylhydrazine], in assay [1], the IC100 turned out to be 1 µM and the “antiviral index (Al), PBL cells” value is given as over 50. For the same molecule, in assay [2], the IC100 was found to be 1 µM and the “antiviral index (Al), MT2 cells” value is given as 50.
Consider `CC(C)(C)OC(=O)N1CCCCN1C[C@H](O)[C@H](Cc1ccccc1)NC(=O)[C@H](CC(N)=O)NC(=O)c1ccc2ccccc2n1` [Compound 19, 1-t-Butyloxycarbonyl-2-[(2S,3S)-2-hydroxy-3-(N-quinaldyl-L-asparaginyl)amino-4-phenylbutyl]hexahydropyridazine], for which, in assay [1], the IC100 is 0.1 µM and the “antiviral index (Al), PBL cells” value was 200. In assay [2], the IC100 was 1 µM and the “antiviral index (Al), MT2 cells” value was 10.
For `CC(C)[C@H](NC(=O)OCc1ccccn1)C(=O)N[C@@H](Cc1ccccc1)C(O)CN1CC2CCCCC2CN1C(=O)OC(C)(C)C` (stereo partly drawn) [Compound 6, cis-1,6-3-t-Butoxycarbonyl-4-[(2RS,3S)-2-hydroxy-3-[N-(2-pyridyl)methoxycarbonyl-L-valyl]amino-4-phenylbutyl]-3,4-diaza-bicyclo[4.4.0]decane] the same measures were 1 µM, under 5, 1 µM and under 5.
The like results for `CC(C)[C@H](NC(=O)c1ccc2ccccc2n1)C(=O)N[C@@H](Cc1ccccc1)C(O)CN1CC2CCCCC2CN1C(=O)OC(C)(C)C` (stereo partly shown) [Compound 3] were, in that order, 1 µM, 5, 1 µM and 5.
`CC(C)[C@H](NC(=O)c1ccc2ccccc2n1)C(=O)N[C@@H](Cc1ccccc1)[C@H](O)CN(NC(=O)OC(C)(C)C)C(C)C` [Compound 9, t-Butyl 3-Isopropyl-3-[(2R,3S)-2-hydroxy-3-(N-quinaldyl-L-valyl)amino-4-phenylbutyl]carbazate]: in assay [2], the IC100 came out at 5 µM and the “antiviral index (Al), MT2 cells” value worked out at 4.
Take `CC(C)(C)OC(=O)NN(Cc1ccccc1)C[C@H](O)[C@H](Cc1ccccc1)NC(=O)[C@H](CC(N)=O)NC(=O)c1ccc2ccccc2n1` [Compound 16, t-Butyl 3-benzyl-3-[(2S,3S)-2-hydroxy-3-(N-quinaldyl-L-asparaginyl)amino-4-phenylbuty]carbazate]: in assay [1], the IC100 was 1 µM and the “antiviral index (Al), PBL cells” value worked out at 1. Further, in assay [2], the IC100 amounted to 1 µM and the “antiviral index (Al), MT2 cells” value was 100.
For `CC(C)(C)OC(=O)N1CC2CCCCC2CN1C[C@H](O)[C@H](Cc1ccccc1)NC(=O)[C@H](CC(N)=O)NC(=O)c1ccc2ccccc2n1` (stereo partly drawn) [Compound 2b, cis-1,6-3-t-Butoxycarbonyl-4-[(2S, 3S)-2-hydroxy-3-(N-quinaldyl-L-asparaginyl)amino-4-phenylbutyl]-3,4-diaza-bicyclo[4.4.0]decane], in assay [1], the IC100 was found to be 0.1 µM and the “antiviral index (Al), PBL cells” value worked out at 100. In assay [2], the IC100 turned out to be 0.1 µM and the “antiviral index (Al), MT2 cells” value is 50.
On to `CC(C)(C)OC(=O)N1CC2CCCCC2CN1C[C@H](O)[C@H](Cc1ccccc1)NC(=O)[C@H](CC#N)NC(=O)c1ccc2ccccc2n1` (stereo partly drawn) [Compound 20, cis-1,6-3-t-Butoxycarbonyl-4-[(2S,3S)-2-hydroxy-3-(N-quinaldyl-3-cyano-L-alanyl)amimo-4-phenylbutyl]-3,4-diaza-bicyclo[4.4.0]decane], for which, in assay [1], the IC100 came out at 1 µM and the “antiviral index (Al), PBL cells” value was determined as 10. Moreover, in assay [2], the IC100 was determined as 1 µM and the “antiviral index (Al), MT2 cells” value is reported as 10.
Turning to `CC(C)N(C[C@H](O)[C@H](Cc1ccccc1)NC(=O)[C@H](CC(N)=O)NC(=O)c1ccccc1)NC(=O)OC(C)(C)C` [Compound 18, t-Butyl 3-isopropyl-3-[(2S,3S)-2-hydroxy-3-(N-benzoyl-L-asparaginyl)amino-4-phenylbutyl]carbazate], in assay [1], the IC100 came out at 1 µM and the “antiviral index (Al), PBL cells” value is reported as over 150. In assay [2], the IC100 was determined as 1 µM and the “antiviral index (Al), MT2 cells” value is recorded as 10.
Regarding `CC(CCc1ccccc1)N(C[C@@H](O)[C@H](Cc1ccccc1)NC(=O)[C@H](CC(N)=O)NC(=O)c1ccc2ccccc2n1)NC(=O)OC(C)(C)C` (stereo partly shown) [Compound 12], in assay [2], the IC80 amounted to 1 µM and the “antiviral index (Al), MT2 cells” value came out at 10.
In assay [2] (Human immunodeficiency virus 1, printed in the IC100 column with footnote (a) IC50), `CC(C)(C)OC(=O)N1CC2CCCCC2CN1CC(O)[C@H](Cc1ccccc1)NC(=O)OCc1ccccc1` (stereo partly drawn) [Compound 1, cis-1,6-3-t-Butoxycarbonyl-4-[(2RS,3S)-2-hydroxy-3-(phenylmethoxycarbonyl)amino-4-phenylbutyl]-3,4-diaza-bicyclo-[4.4.0]decane] showed an IC50 of 10 µM. Also, the “antiviral index (Al), MT2 cells” value in assay [2] is on record as 1.
Consider `CC(C)N(C[C@H](O)[C@H](Cc1ccccc1)NC(=O)[C@H](CC(N)=O)NC(=O)c1ccc2ccccc2n1)NC(=O)C(C)(C)C` [Compound 13, 1-Trimethylacetyl-2-[(2S,3S)-2-hydroxy-3-(N-quinaldyl-L-asparaginyl)amino-4-phenylbutyl]-2-isopropylhydrazine], for which, in assay [1], the IC100 turned out to be 1 µM and the “antiviral index (Al), PBL cells” value was over 50. Also, in assay [2], the IC100 was 1 µM and the “antiviral index (Al), MT2 cells” value was 50.
In the case of `CC(C)N(C[C@H](O)[C@H](Cc1ccccc1)NC(=O)[C@H](CC(N)=O)NC(=O)c1ccccn1)NC(=O)OC(C)(C)C` [Compound 15, t-Butyl 3-isopropyl-3-[(2S,3S)-2-hydroxy-3-(N-picolinyl-L-asparaginyl)amino-4-phenylbutyl]carbazate], in assay [1], the IC100 came out at 1 µM and the “antiviral index (Al), PBL cells” value was found to be 200. Moreover, in assay [2], the IC100 came to 1 µM and the “antiviral index (Al), MT2 cells” value worked out at 100.
For the molecule `CC(C)(C)OC(=O)N1CC2CCCCC2CN1CC(O)[C@H](Cc1ccccc1)NC(=O)[C@H](CCC(N)=O)NC(=O)c1ccc2ccccc2n1` (stereo partly drawn) [Compound 4, cis-1,6-3-t-Butoxycarbonyl-4-[(2RS,3S)-2-hydroxy-3-(N-quinaldyl-L-glutaminyl)amino-4-phenylbutyl]-3,4-diaza-bicyclo[4.4.0]decane], in assay [1], the IC100 amounted to 1 µM and the “antiviral index (Al), PBL cells” value was determined as 10. Further, in assay [2], the IC100 was found to be 1 µM and the “antiviral index (Al), MT2 cells” value is on record as 10.
Turning to `CC(C)(C)OC(=O)N1CC2CCCCC2CN1C[C@H](O)[C@H](Cc1ccccc1)NC(=O)[C@H](CC(N)=O)NC(=O)c1ccc2ccccc2n1` (single isomer, unassigned) [Compound 2b.A], in assay [1], the IC100 worked out at 0.01 µM and the “antiviral index (Al), PBL cells” value came to 1000. Also, in assay [2], the IC80 came to 0.01 µM and the “antiviral index (Al), MT2 cells” value was 100.

(Values after US6258806A, “Amine derivatives of oxo- and hydroxy- substituted hydrocarbons” (Narhex Limited, priority 1992, dated 2001).)
